Converted amounts (≈) assume the structure as drawn.
Key:
[1] = test system: human acute myeloid leukemia cell strain HL-60; experiment: Cytotoxic activity, MTT test on HL-60 cells; type: cell-based; conditions: 72 hr incubation; for IC50: Homo sapiens
Description: Cytostatic activity of TD-1 to 10 was studied in terms of numerical values of cytotoxic activity using human acute myeloid leukemia cell strain HL-60. The test was specifically carried out according to the following procedure.
HL-60 cells precultured in an FBS-containing RPMI 1640 medium were suspended in an FBS-containing RPMI 1640 medium so that the number of HL-60 cells is 4×10^4 per mL. The suspension was dispensed in an amount of […] for each well in a 96-well microplate, followed by preincubation in 5% carbon dioxide gas at 37° C. for 24 hr. Subsequently, EtOH-H2O(1:1) as control, and a solution of each TD compound in EtOH-H2O(1:1) as a sample were added each in an amount of […] to each well. After incubation in 5% carbon dioxide gas at 37° C. for 72 hr, an MTT reagent was added in an amount of […] to each well, and incubation was further carried out for 4 hr. The medium was removed, and MTT formazan thus produced was then dissolved in […] of DMSO. Detection was carried out at a light absorption wavelength of 550 nm with a microplate reader, and the viable cell count based on the control was calculated. IC50 values were calculated from a dose-response curve.

P388 mouse leukemia = conditions: mice with P388 mouse leukemia intraperitoneally transplanted; Pal et al. 1976; cited from earlier work
[2] = test system: 39 types in total of human tumor cells; experiment: Human cultured cancer cell panel screening test, average over panel; type: cell-based; conditions: 50% cell growth inhibitory concentration, average over 39 human tumor cell types
Description: (§1) To examine the cytostatic activity of TD-1, a human cultured cancer cell panel screening test was carried out. Specifically, for TD-1, the human cultured cancer cell panel screening test was carried out by measuring 50% cell growth inhibitory concentration (GI50) against 39 types in total of human tumor cells according to the method described in “Gan To Kagaku Ryoho (Cancer and Chemotherapy) (Takao Yamori), 24, 129-135, 1997”.

[3] = test system: OVCAR-3 ovarian cancer cell line; experiment: Human cultured cancer cell panel screening test, OVCAR-3; type: cell-based
Description: as §1

[4] = test system: OVCAR-4 ovarian cancer cell line; experiment: Human cultured cancer cell panel screening test, OVCAR-4; type: cell-based
Description: as §1

[5] = test system: OVCAR-5 ovarian cancer cell line; experiment: Human cultured cancer cell panel screening test, OVCAR-5; type: cell-based
Description: as §1

[6] = test system: OVCAR-8 ovarian cancer cell line; experiment: Human cultured cancer cell panel screening test, OVCAR-8; type: cell-based
Description: as §1

[7] = test system: SK-OV-3 ovarian cancer cell line; experiment: Human cultured cancer cell panel screening test, SK-OV-3; type: cell-based
Description: as §1

[8] = test system: DU-145 prostatic cancer cell line; experiment: Human cultured cancer cell panel screening test, DU-145; type: cell-based
Description: as §1

[9] = test system: PC-3 prostatic cancer cell line; experiment: Human cultured cancer cell panel screening test, PC-3; type: cell-based
Description: as §1

Compound: C=C1C(=O)O[C@@H]2C[C@H](C)[C@@]3(O)C[C@H](O)[C@@](C)(C[C@@H](OC(=O)C(C)C)[C@@H]12)O3 [TD-7, (1S,3R,4S,6R,7S,8R,10R)-1,3-dihydroxy-3,10-epoxy-8-isobutyryloxygermacra-11(13)-en-6,12-olide]
- IC50 value [1]: (3.87) μg/mL

Compound: C=C1C(=O)O[C@@H]2C[C@H](C)[C@@]3(OC)CC[C@@](C)(C[C@@H](OC(=O)C(C)C)[C@@H]12)O3 [TD-10, (3R,4S,6R,7S,8R,10S)-3-methoxy-3,10-epoxy-8-isobutyryloxygermacra-11(13)-en-6,12-olide]
- IC50 value [1]: (0.78) μg/mL

Compound: C=C1C(=O)O[C@@H]2C=C(C)[C@@]3(OC)C[C@H](O)[C@@](C)(C[C@@H](OC(=O)C(C)C)[C@@H]12)O3 [TD-6, (1 S,3R,6R,7R, 8R,10R)-1-hydroxy-3-methoxy-3,10-epoxy-8-isobutyryloxygermacra-4,11(13)-dien-6,12-olide]
- IC50 value [1]: (2.50) μg/mL

Compound: C=C1C(=O)OC2/C=C(/C)C(=O)/C=C/C(C)(O)CC(OC(=O)C(C)C)C12 [TD-2, (6S,7R,8R,10R)-10-hydroxy-3-oxo-8-isobutyryloxygermacra-1,4,11(13)-trien-6,12-olide]
- IC50 [1]: 0.38 µg/mL (≈ 1.09 µM)

Compound: C=C1C(=O)OC2/C=C(/C)C(O)CC3OC3(C)CC(OC(=O)C(C)C)C12 [TD-8, (1R,3S,6S,7R,8R,10R)-3-hydroxy-1,10-epoxy-8-isobutyrylgermacra-4,11(13)-dien-6,12-olide]
- IC50 [1]: 0.92 µg/mL (≈ 2.63 µM)

Compound: C=C1C(=O)O[C@H]2/C=C(/C)[C@@]3(O)C=C[C@@](C)(C[C@@H](OC(=O)C(C)C)[C@@H]12)O3 [TD-11, (3R,6R,7R,8R,10R)-3-hydroxy-3,10-epoxy-8-isobutyryloxygermacra-1,4,11(13)-trien-6,12-olide]
- effect of prolonging the life span of mice (P388 mouse leukemia): had the effect of prolonging the life span of mice

Compound: C=C1C(=O)O[C@@H]2C=C(C)[C@@]3(OC)C[C@@H](OC)[C@@](C)(C[C@@H](OC(=O)C(C)C)[C@@H]12)O3 [TD-1, (1R,3R,6R,7R,8R,10R)-1,3-dimethoxy-3,10-epoxy-8-isobutyryloxygermacra-4,11(13)-dien-6,12-olide]
- IC50 value [1]: (0.60) μg/mL
- GI50 [2]: 6.8 µM
- GI50 [3]: 3.3 µM
- GI50 [4]: 5.6 µM
- GI50 [5]: 2900 nM
- GI50 [6]: 3.6 µM
- GI50 [7]: 4 µM
- GI50 [8]: 4.2 µM
- GI50 [9]: 3.3 µM

Compound: C=C1C(=O)O[C@@H]2C=C(C)[C@@]3(O)C[C@@H](OC)[C@@](C)(C[C@@H](OC(=O)C(C)C)[C@@H]12)O3 [TD-4, (1R,3R,6R,7R,8R,10R)-3-hydroxy-1-methoxy-3,10-epoxy-8-isobutyryloxygermacra-4,11(13)-dien-6,12-olide]
- IC50 value [1]: (0.05) μg/mL

Compound: C=C1C(=O)O[C@@H]2C[C@H](C)[C@@]3(O)CC[C@@](C)(C[C@@H](OC(=O)C(C)C)[C@@H]12)O3 [TD-9, (3R,4S,6R,7S,8R,10S)-3-hydroxy-3,10-epoxy-8-isobutyryloxygermacra-11 (13)-en-6,12-olide]
- IC50 value [1]: (2.50) μg/mL

Compound: C=C1C(=O)O[C@@H]2C[C@H](C)[C@@]3(OC)C[C@H](O)[C@@](C)(C[C@@H](OC(=O)C(C)C)[C@@H]12)O3 [TD-3, (1S,3R,4S,6R,7S,8R,10R)-1-hydroxy-3-methoxy-3,10-epoxy-8-isobutyryloxygermacra-11(13)-en-6,12-olide]
- IC50 value [1]: (4.97) μg/mL

Reference: patent US7563913B2, “Compound and pharmaceutical composition” (Hiro International Co., Ltd., priority 2003, dated 2009)
